The numbers were not newly measured in US20030060663A1, “Novel therapeutic agents for macromolecular structures” (priority 1998, published 2003), which cites them from elsewhere.

Like-named read-outs stand apart in the source and are kept apart here.

For data set [1] the following is noted: animal models.
For data set [2] the following is noted: clinical trials.
Data set [3] deals with HRV (human rhinovirus)-16, 39, and 50. The settings on record: administered orally to patients infected with HRV-16, 39, and 50.
The next data set concerns coxsackievirus A21. The settings on record: p.o. administration, patients challenged with coxsackievirus A21.
For data set [4], the system named is Microsporum, Epidermophyton and Trichophyton. The settings on record: various species of Microsporum.
The subject of the next data set is fungal pathogens. The settings on record: on average; for MIC values, fold higher than amphotericin B: range of fungal pathogens.
The subject of another data set is HRV-9. The settings on record: against HRV-9.
The test system of another data set is axonal microtubules. The settings on record: intact tectal plates from mouse embryos.
The next data set has as its system mitotic microtubules. The settings on record: intact tectal plates from mouse embryos; blockade of cells at metaphase.
Another data set concerns yeasts. The settings on record: relative to amphotericin B.

With `COC(=O)[C@H]1[C@@H]2C[C@@H](O[C@@H]3O[C@H](C)[C@@H](O)[C@H](N)[C@@H]3O)/C=C/C=C/C=C/C=C/C=C/C=C/C=C/[C@H](C)[C@@H](O)[C@@H](C)[C@H](C)OC(=O)C[C@H](O)C[C@H](O)CC[C@@H](O)[C@H](O)C[C@H](O)C[C@](O)(C[C@@H]1O)O2` [Amphotericin B methyl ester], the “nephrotoxicity compared with amphotericin B” value in data set [1] and in [2] was “less nephrotoxic” each time. In the case of `Cc1cc(CCCCCOc2c(Cl)cc(C3N=CCO3)cc2Cl)on1` (centres unmarked) [Compound A], the therapeutic effect entry in [3] is listed as “did not demonstrate a therapeutic effect”. Besides, the “prophylactic effect in clinical trials” value in the data set on coxsackievirus A21 is recorded as “prophylactic effect”.

Consider `COC1=CC(=O)C[C@@H](C)[C@]12Oc1c(Cl)c(OC)cc(OC)c1C2=O` [Griseofulvin], for which, in data set [4], the “in vitro activity against fungi” value is reported as “fungistatic”.

In the case of `COC(=O)C1C(O)CC2(O)CC(O)CC(O)C(O)CCC(O)CC(O)CC(=O)OC(C)C(C)C(O)C(C)C=CC=CC=CC=CC=CC=CC=CC(OC3OC(C)C(O)C(NC(=O)C(N)CCCN)C3O)CC1O2` (centres unmarked) [N-ornithyl amphotericin B methyl ester], the “nephrotoxicity compared with amphotericin B” value in [1] is listed as “less nephrotoxic”. Turning to `CC1C=CC=CC=CC=CC=CC=CC=CC(OC2OC(C)C(O)C(N)C2O)CC2OC(OCCO)(CC(O)CC(O)C(O)CCC(O)CC(O)CC(=O)OC(C)C(C)C1O)CC(O)C2C(=O)O` (stereo not drawn) [beta-hydroxyethoxy ketal], in the data set with fungal pathogens, the “MIC values, fold higher than amphotericin B” value is 2 fold. Turning to `COc1ccc(N2CCN(c3cccc(C)c3)CC2)nn1` [compound C], the prophylactic use entry with HRV-9 is given as “worked prophylactically”.

On to `COC12CC(O)CC(O)C(O)CCC(O)CC(O)CC(=O)OC(C)C(C)C(O)C(C)C=CC=CC=CC=CC=CC=CC=CC(OC3OC(C)C(O)C(N)C3O)CC(O1)C(C(=O)O)C(O)C2` (centres unmarked) [methoxy ketal], for which the “MIC values, fold higher than amphotericin B” value in the data set on fungal pathogens is on record as 2 fold. On to `CCCOC12CC(O)CC(O)C(O)CCC(O)CC(O)CC(=O)OC(C)C(C)C(O)C(C)C=CC=CC=CC=CC=CC=CC=CC(OC3OC(C)C(O)C(N)C3O)CC(O1)C(C(=O)O)C(O)C2` (centres unmarked) [n-propyloxy ketal], for which the “fold less potent in vitro” value in the data set with fungal pathogens is 10 fold. On to `CC[C@]1(O)C[C@@H]2CN(CCc3c([nH]c4ccccc34)[C@@](C(=O)OC)(c3cc4c(cc3OC)N(C)[C@H]3[C@@](O)(C(=O)OC)[C@H](OC(C)=O)[C@]5(CC)C=CCN6CC[C@]43[C@@H]65)C2)C1` [vinblastine], for which, in the data set on axonal microtubules, the “concentration producing depolymerization of axonal microtubules” value (“concentration producing depolymerization” for short) is given as 30 mcM. Also, the “concentration at which mitotic microtubule formation is inhibited” value with mitotic microtubules is reported as 2 mcM.

For `CC[C@]1(O)C[C@H]2CN(CCc3c([nH]c4ccccc34)[C@@](C(=O)OC)(c3cc4c(cc3OC)N(C=O)[C@H]3[C@@](O)(C(=O)OC)[C@H](OC(C)=O)[C@]5(CC)C=CCN6CC[C@]43[C@@H]65)C2)C1` [vincristine, Vincristine], the “concentration producing depolymerization” value in the data set on axonal microtubules is recorded as 5 mcM. The “concentration at which mitotic microtubule formation is inhibited” value in the data set on mitotic microtubules is 2 mcM. As to `CCC1=C[C@@H]2CN(C1)Cc1c([nH]c3ccccc13)[C@@](C(=O)OC)(c1cc3c(cc1OC)N(C)[C@H]1[C@@](O)(C(=O)OC)[C@H](OC(C)=O)[C@]4(CC)C=CCN5CC[C@]31[C@@H]54)C2` [vinorelbine, 3′,4′-Didehydro-4′-deoxy-C′-norvincaleukoblastine], the “concentration producing depolymerization” value with axonal microtubules was 40 mcM. In the data set on mitotic microtubules, the “concentration at which mitotic microtubule formation is inhibited” value is 2 mcM. For “monovalent adduct of amphotericin B with N,N′-1,6-hexandiyl-bis(maleimide)”, in the data set with yeasts, the “MIC values against yeasts, fold higher than amphotericin B” value was “more than 20 fold”.
